The values that follow come from patent US5728684A, “Determination of prodrugs metabolizable by the liver and therapeutic use thereof” (priority 1994, dated 1998).

Molecules are shown by their SMILES. “Also recorded” adds a separate entry of the source.

Data set [1] relates to rat liver homogenate. Put plainly: HPLC time course of conversion of IPdR by rat liver homogenate. The class given is in vitro ADME. The procedure:
FIGS. 1A-1C depict HPLC profiles of the conversion of IPdR to IUdR by liver homogenate. IPdR was incubated with rat liver homogenate. For control reactions, a portion of the supernatant was boiled for 5 minutes to inactivate all enzymes before use. The assay condition was as described hereinafter except 60 μl of the 100,000 g×60 minute supernatant (equivalent to approximately 0.5 mg protein/ml) was used in a reaction volume of 1500 μl . […]
For the standard assay condition, the reaction mixture contained 50 mM Tris-HCl, pH 7.5, 1 mM EDTA, 180 μM of IPdR (or its analogs) and approximately 0.01 mg protein of 10,000 g supernatant of tissue homogenate in a final volume of 500 μl and the incubation was at 37° C. for 10 minutes unless specified otherwise. […] The samples were reconstituted to the original aliquot volume with the HPLC mobile phase buffer and analyzed on a Alltech RP-18 column. IPdR, IUdR and IU were detected at a UV absorption wavelength of 230 nm, and IPdR was also detected at a UV absorption wavelength of 335 nm. […]
To study the conversion of IPdR to IUdR by liver enzyme the metabolites of IPdR were analyzed after incubation with a supernatant of rat liver homogenate using a reverse phase HPLC technique. IPdR and IUdR could be detected at an absorption wavelength of 230 nm but only IPdR could be detected at 335 nm. […]

Data set [2] relates to bone marrow, gut and liver tissue. As to the kind of experiment: Thymidine replacement in tissues of athymic nude mice. It is filed as in vivo. The procedure:
Mice were administered daily oral dosages of 0, 100, 250 and 500 mg/kg. Percent dThd replacement as indicative of IPdR incorporation into bone marrow, gut and liver tissue was assayed according to known methods. […] Results presented in FIG. 6 are mean percent thymidine replacement ± one standard error of the mean. N is greater or equal to 3 for each dose.

Data set [3] deals with Xanthine oxidase. To be noted: shown previously (Lewandowski et al. 1989); cited from earlier work.
In data set [4] the test system is HSV-2. To be noted: Lewandowski et al. 1989; cited from earlier work.

As for `O=c1ncc(I)cn1[C@H]1C[C@H](O)[C@@H](CO)O1` [IPdR, 1-(2-deoxy-β-D-ribofuranosyl)-5-(iodo)-2-pyrimidinone], in data set [1] (37° C., 0, 15, 30 minutes (FIG. 1)), the “conversion of IPdR to IUdR over time” value is listed as “time dependent conversion of IPdR to IUdR”. The “product produced from IPdR” value in data set [1] (IUdR) is given as “IUdR appeared to be the only product”. Also, the “incorporation of IUdR into liver” value in data set [2] (oral, 100, 250, 500 mg/kg daily) is on record as “No incorporation of IUdR into liver was found”. For the same compound, in data set [2] (oral, 100, 250, 500 mg/kg daily (FIG. 6)), the “percent thymidine replacement in bone marrow and gut” value is reported as “relatively low; also recorded: relatively small amounts”. For the same compound, the “conversion of IPdR to IUdR by xanthine oxidase” value in data set [3] is “could not be converted to IUdR”. Besides, the “activity against HSV-2 in cell culture” value in data set [4] was “potent activity”.
